Assay results taken from PubChem BioAssay (NCI).
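96-well plates; 48 h exposure; 5 concentrations. Endpoints by linear interpolation between flanking doses. Not reached: highest tested concentration assigned. TGI is the concentration that stops growth completely.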

Assays:
Assay in all cases: DTP human tumour cell line panel, 48 h
SF-539 CNS = system: SF-539 CNS
SNB-19 CNS = system: SNB-19 CNS
NCI-H23 lung = system: NCI-H23 lung
RPMI-8226 leukemia = system: RPMI-8226 leukemia
UO-31 renal = system: UO-31 renal
NCI-H522 lung = system: NCI-H522 lung
M14 melanoma = system: M14 melanoma
OVCAR-3 ovarian = system: OVCAR-3 ovarian
HOP-62 NSCLC = system: HOP-62 NSCLC
LOX IMVI melanoma = system: LOX IMVI melanoma
PC-3 prostate = system: PC-3 prostate
MDA-MB-231 breast = system: MDA-MB-231 breast
HOP-92 NSCLC = system: HOP-92 NSCLC
SF-295 CNS = system: SF-295 CNS
NCI/ADR-RES ovarian = system: NCI/ADR-RES ovarian
A549 NSCLC = system: A549 NSCLC
T-47D breast = system: T-47D breast
HL-60(TB) leukemia = system: HL-60(TB) leukemia
HCC-2998 colon = system: HCC-2998 colon
SNB-75 CNS = system: SNB-75 CNS
HS 578T breast = system: HS 578T breast
HT29 colon = system: HT29 colon
SK-MEL-5 melanoma = system: SK-MEL-5 melanoma
MDA-N = system: MDA-N
MDA-MB-435 = system: MDA-MB-435
OVCAR-4 ovarian = system: OVCAR-4 ovarian
NCI-H226 lung = system: NCI-H226 lung
BT-549 breast = system: BT-549 breast
TK-10 renal = system: TK-10 renal
SN12C renal = system: SN12C renal
SR leukemia = system: SR leukemia
SF-268 CNS = system: SF-268 CNS
COLO 205 colon = system: COLO 205 colon
UACC-257 melanoma = system: UACC-257 melanoma
CCRF-CEM leukemia = system: CCRF-CEM leukemia
HCT-116 colon = system: HCT-116 colon
K-562 leukemia = system: K-562 leukemia
SK-OV-3 ovarian = system: SK-OV-3 ovarian
OVCAR-5 ovarian = system: OVCAR-5 ovarian
MALME-3M melanoma = system: MALME-3M melanoma
RXF 393 renal = system: RXF 393 renal
DU-145 prostate = system: DU-145 prostate
ACHN renal = system: ACHN renal
OVCAR-8 ovarian = system: OVCAR-8 ovarian
CAKI-1 renal = system: CAKI-1 renal
EKVX NSCLC = system: EKVX NSCLC
SW-620 colon = system: SW-620 colon
U251 CNS = system: U251 CNS
NCI-H460 lung = system: NCI-H460 lung
HCT-15 colon = system: HCT-15 colon
UACC-62 melanoma = system: UACC-62 melanoma
MOLT-4 leukemia = system: MOLT-4 leukemia
SK-MEL-2 melanoma = system: SK-MEL-2 melanoma
KM12 colon = system: KM12 colon
MCF7 breast = system: MCF7 breast
786-0 renal = system: 786-0 renal
SK-MEL-28 melanoma = system: SK-MEL-28 melanoma
IGROV1 ovarian = system: IGROV1 ovarian

C[C@]12CC[C@H]3[C@@H](CCC4=C[C@@H](N5CCCC5)CC[C@@]43C)[C@@H]1C/C(=C\c1ccncc1)[C@@H]2O
TGI (SF-539 CNS): 28.1 µM | TGI (SNB-19 CNS): 30.1 µM | TGI (NCI-H23 lung): 34.2 µM | TGI (RPMI-8226 leukemia): 28.5 µM | TGI (UO-31 renal): 18.4 µM | TGI (NCI-H522 lung): 24.1 µM | TGI (M14 melanoma): 5.66 µM | TGI (OVCAR-3 ovarian): 41.2 µM | TGI (HOP-62 NSCLC): 18.3 µM | TGI (LOX IMVI melanoma): 21.4 µM | TGI (PC-3 prostate): 30.8 µM | TGI (MDA-MB-231 breast): 29.8 µM | TGI (HOP-92 NSCLC): 31.2 µM | TGI (SF-295 CNS): 17.6 µM | TGI (NCI/ADR-RES ovarian): 43.9 µM | TGI (A549 NSCLC): 29.1 µM | TGI (T-47D breast): 65.8 µM | TGI (HL-60(TB) leukemia): 41.8 µM | TGI (HCC-2998 colon): 18 µM | TGI (SNB-75 CNS): 42.2 µM | TGI (HS 578T breast): 36.1 µM | TGI (HT29 colon): 11 µM | TGI (SK-MEL-5 melanoma): 25.2 µM | TGI (MDA-N): 24.9 µM | TGI (MDA-MB-435): 27.1 µM | TGI (OVCAR-4 ovarian): 75.8 µM | TGI (NCI-H226 lung): 33.7 µM | TGI (BT-549 breast): 38.9 µM | TGI (TK-10 renal): 26.5 µM | TGI (SN12C renal): 28.5 µM | TGI (SR leukemia): 12.8 µM | TGI (SF-268 CNS): 41.8 µM | TGI (COLO 205 colon): 20.7 µM | TGI (UACC-257 melanoma): 18.7 µM | TGI (CCRF-CEM leukemia): > 100 µM | TGI (HCT-116 colon): 21.1 µM | TGI (K-562 leukemia): > 100 µM | TGI (SK-OV-3 ovarian): 61.7 µM | TGI (OVCAR-5 ovarian): 53.6 µM | TGI (MALME-3M melanoma): 27.8 µM | TGI (RXF 393 renal): 19 µM | TGI (DU-145 prostate): 39.5 µM | TGI (ACHN renal): 40.6 µM | TGI (OVCAR-8 ovarian): 63.5 µM | TGI (CAKI-1 renal): > 100 µM | TGI (EKVX NSCLC): 49.6 µM | TGI (SW-620 colon): 43.6 µM | TGI (U251 CNS): 28.5 µM | TGI (NCI-H460 lung): 26.4 µM | TGI (HCT-15 colon): 26.2 µM | TGI (UACC-62 melanoma): 29.9 µM | TGI (MOLT-4 leukemia): > 100 µM | TGI (SK-MEL-2 melanoma): 30.9 µM | TGI (KM12 colon): 31 µM | TGI (MCF7 breast): 26.1 µM | TGI (786-0 renal): 10.8 µM | TGI (SK-MEL-28 melanoma): 24.2 µM | TGI (IGROV1 ovarian): 64.6 µM
